Experimental data published in ChEMBL document CHEMBL1201862, “PubChem BioAssay data set” (2004).
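Five concentrations, 48 hours, 96-well plates. At the GI50, growth is halved.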 The source made the active and inactive calls. Cut-off read from the data, not from the text of the source: active = GI50 up to about 1.1 µM and inactive = higher.

Key:
Test in all cases: NCI-60 cell line screen, 48 h
786-0 = system: 786-0
CCRF-CEM = system: CCRF-CEM
DU-145 = system: DU-145
EKVX = system: EKVX
HCC 2998 = system: HCC 2998
HL-60 = system: HL-60
K562 = system: K562
LOX IMVI = system: LOX IMVI
MCF7 = system: MCF7
MDA-MB-435 = system: MDA-MB-435
NCI-H23 = system: NCI-H23
NCI-H522 = system: NCI-H522
OVCAR-3 = system: OVCAR-3
OVCAR-4 = system: OVCAR-4
OVCAR-5 = system: OVCAR-5
SF-268 = system: SF-268
SF-295 = system: SF-295
SK-MEL-2 = system: SK-MEL-2
SNB-19 = system: SNB-19
SW-620 = system: SW-620

N=C(N)SCc1ccc(Cl)c2ccccc12.O=[N+]([O-])c1ccc(O)c([N+](=O)[O-])c1
GI50 (786-0): 12.4 µM (inactive)
GI50 (CCRF-CEM): 3.23 µM (inactive)
GI50 (DU-145): 12.9 µM (inactive)
GI50 (EKVX): 10.3 µM (inactive)
GI50 (HCC 2998): 2.04 µM (inactive)
GI50 (HL-60): 2.82 µM (inactive)
GI50 (K562): 0.421 µM (active)
GI50 (LOX IMVI): 14.9 µM (inactive)
GI50 (MCF7): 10 µM (inactive)
GI50 (MDA-MB-435): 8.24 µM (inactive)
GI50 (NCI-H23): 12.6 µM (inactive)
GI50 (NCI-H522): 7.78 µM (inactive)
GI50 (OVCAR-3): 8.95 µM (inactive)
GI50 (OVCAR-4): 10.9 µM (inactive)
GI50 (OVCAR-5): 13.5 µM (inactive)
GI50 (SF-268): 15.4 µM (inactive)
GI50 (SF-295): 9.91 µM (inactive)
GI50 (SK-MEL-2): 11.6 µM (inactive)
GI50 (SNB-19): 16.2 µM (inactive)
GI50 (SW-620): 11.7 µM (inactive)

CC1=CCC([C@@](C)(O)CCCC(C)(C)N=C=S)CC1 (stereo not given in full)
GI50 (786-0): 17.7 µM (inactive)
GI50 (CCRF-CEM): 22.2 µM (inactive)
GI50 (DU-145): 16.4 µM (inactive)
GI50 (EKVX): 17 µM (inactive)
GI50 (HCC 2998): 18.2 µM (inactive)
GI50 (HL-60): 21.8 µM (inactive)
GI50 (K562): 19.3 µM (inactive)
GI50 (LOX IMVI): 16 µM (inactive)
GI50 (MCF7): 18.7 µM (inactive)
GI50 (MDA-MB-435): 17.1 µM (inactive)
GI50 (NCI-H23): 20.9 µM (inactive)
GI50 (NCI-H522): 17.3 µM (inactive)
GI50 (OVCAR-3): 18.4 µM (inactive)
GI50 (OVCAR-4): 16.5 µM (inactive)
GI50 (OVCAR-5): 19.4 µM (inactive)
GI50 (SF-268): 16.8 µM (inactive)
GI50 (SF-295): 19.4 µM (inactive)
GI50 (SK-MEL-2): 17.7 µM (inactive)
GI50 (SNB-19): 17.3 µM (inactive)
GI50 (SW-620): 18.3 µM (inactive)

CC12CC3CC/C(=N\O)C(C1)C3(N1CCOCC1)C/C2=N/O (stereo not given)
GI50 (786-0): > 100 µM (inactive)
GI50 (CCRF-CEM): > 100 µM (inactive)
GI50 (DU-145): > 100 µM (inactive)
GI50 (EKVX): > 100 µM (inactive)
GI50 (HCC 2998): > 100 µM (inactive)
GI50 (HL-60): 49.8 µM (inactive)
GI50 (K562): > 100 µM (inactive)
GI50 (LOX IMVI): > 100 µM (inactive)
GI50 (MCF7): > 100 µM (inactive)
GI50 (MDA-MB-435): > 100 µM (inactive)
GI50 (NCI-H23): > 100 µM (inactive)
GI50 (NCI-H522): > 100 µM (inactive)
GI50 (OVCAR-3): > 100 µM (inactive)
GI50 (OVCAR-4): > 100 µM (inactive)
GI50 (OVCAR-5): > 100 µM (inactive)
GI50 (SF-268): > 100 µM (inactive)
GI50 (SF-295): > 100 µM (inactive)
GI50 (SK-MEL-2): > 100 µM (inactive)
GI50 (SNB-19): > 100 µM (inactive)
GI50 (SW-620): > 100 µM (inactive)

O=c1[nH]c2ccc([N+](=O)[O-])c(Cl)c2c2ccccc12
GI50 (786-0): 5.78 µM (inactive)
GI50 (CCRF-CEM): 0.361 µM (active)
GI50 (DU-145): 3.06 µM (inactive)
GI50 (EKVX): 5.9 µM (inactive)
GI50 (HCC 2998): 5.46 µM (inactive)
GI50 (HL-60): 2.35 µM (inactive)
GI50 (K562): 0.634 µM (active)
GI50 (LOX IMVI): 1.68 µM (inactive)
GI50 (MCF7): 0.258 µM (active)
GI50 (MDA-MB-435): 2.1 µM (inactive)
GI50 (NCI-H23): 5.87 µM (inactive)
GI50 (NCI-H522): 3.13 µM (inactive)
GI50 (OVCAR-3): 3.72 µM (inactive)
GI50 (OVCAR-4): 10.7 µM (inactive)
GI50 (OVCAR-5): 5.04 µM (inactive)
GI50 (SF-268): 2.74 µM (inactive)
GI50 (SF-295): 2.62 µM (inactive)
GI50 (SK-MEL-2): 6.1 µM (inactive)
GI50 (SNB-19): 1.91 µM (inactive)
GI50 (SW-620): 1.58 µM (inactive)
